Laboratory results reported in a melting point compilation (Tetko et al.; mined from patent text by program, amines drawn as free bases though some values may be those of a salt).

| melting point | SMILES |
| --- | --- |
| 135 to 145 °C | COC(=O)C1=C(C)NC(CC(=O)N2CCN(C3CC4CCC(C3)N4C(=O)OC(C)Cl)CC2)=C(C(=O)OC)C1c1c(Cl)cccc1Cl (stereo not drawn) |
| 192 to 194 °C | COc1ccc(C2(c3ccc(N(C)C)cc3)OC(=O)c3cc(N(C)C)ccc32)c(OC)c1 (stereo not drawn) |
| 157 to 158 °C | S=C=Nc1ccc2nccnc2c1Br |
| 113 to 115 °C | Cc1cccc(C(N)c2ccc(OCCOc3ccc(C(N)c4cccc(C)c4)cc3)cc2)c1 (stereo not drawn) |
| 85 to 86 °C | CCOC(=O)C1=CCCCC1S(=O)(=O)Nn1cccc1 (stereo not drawn) |
| 220 to 224 °C | N#Cc1c(N2CCCN(c3ccccn3)CC2)cc[nH]c1=S |
| 189 to 190 °C | c1ccc(C(N=C2NCCN2)c2ccccc2)cc1 |
| 109 to 113 °C | Nc1cccc(COc2cccc3c2CN(C2CCC(=O)NC2=O)C3=O)c1 (stereo not drawn) |
| 158 to 160 °C | O=c1[nH]c2ccccc2n1CCN1CCN(c2cc(C(F)(F)F)ccc2O)CC1 |
| 157 °C | CC(C)(C)NC(=O)Oc1ccc(-c2nn(C3CCCC3)c3c(F)cccc23)cc1 |
| 255 °C | CN(C)C1CCC2(CC1)Nc1cc(Cl)c(S(N)(=O)=O)cc1S(=O)(=O)N2 (stereo not drawn) |
| 149 to 157 °C | c1ccc(C2CCN(CCC(c3ccccc3)(c3ccccc3)c3nnn[nH]3)CC2)cc1 |
| 178 to 179 °C | CCOC(=O)c1cnn(Cc2ccccc2)c1NC(=O)Nc1ccccc1 |
| 137 °C | Cc1cc(C)nc(Oc2ccc(-c3ccn(CC4CC4)c(=O)c3C#N)c(F)c2)c1 |
| 176 to 177 °C | NC(=O)CNC(=O)c1cncc(-c2cccc3cc(Cc4cc(F)cc(Cl)c4)sc23)c1 |
| 186 °C | CCOC(=O)c1c(N2CCN(C(=O)c3cccs3)CC2)c2cc(Cl)cnc2n(Cc2cccc(F)c2)c1=O |
| > 300 °C | CCCn1c(=O)c2c(NC)n[nH]c2n(Cc2ccccc2Cl)c1=O |
| 182 °C | Cc1nc2sccn2c(=O)c1CCN1CCC(=C2c3ccccc3CCn3ccnc32)CC1 |
| 150 to 152 °C | CC(=O)SCC(C(=O)N[C@@H](CC(C)C)C(=O)O)C(F)(F)F (stereo partly drawn) |
| 171 to 172 °C | CNC(=O)c1ccc(-c2ccc(OC)c(-c3cccc([N+](=O)[O-])c3)c2)cc1 |
| 251 to 253 °C | CC(C)c1[nH]n(-c2c(Cl)cc(Cl)cc2Cl)c2nc(Cc3ccc(NC(=O)N4CCN(C)CC4)cc3)nc(=O)c1-2 |
| 159 to 160 °C | COc1ccc(C)cc1NC(=O)Nc1ccc(N2CCN(C(=O)Nc3c(C)cccc3C(=O)O)CC2)cc1 |
| 71 to 73 °C | C=CCc1cc2c(c(CC=C)c1O)N(CC=C)C(=O)CO2 |
| > 270 °C | CN1C(=O)CCCc2ccc(NC(=O)c3ccc(C(=O)O)cc3)cc21 |

| melting point | SMILES |
| --- | --- |
| 107 to 108 °C | NS(=O)(=O)c1ccc(-c2cc(F)c(F)cc2-c2ccc3c(c2)OCCO3)cc1 |
| 40 to 42 °C | CCCCCCSc1ccc(SCCCCCC)c(C(=O)O)n1 |
| 114 to 116 °C | C=C1c2cc(F)ccc2OC12CCN(C(C)=O)CC2 |
| 153 to 155 °C | CC(=O)Nc1cc(C(F)(F)F)ccc1N1CCc2ccccc21 |
| 80 to 81 °C | COC(=O)CCCCC1C(C(=O)OC)=C(C)NC(C)=C1C(=O)OC |
| 152 °C | Cc1ccc(-c2c(Cl)nc3ncnn3c2Cl)c(F)c1 |
| 142 to 143 °C | CCOC(=O)c1ccc(Cn2cnc3ncccc32)cc1 |
| 34 to 36 °C | CCCCCCCCCCCCc1cc(C(=O)OCC)no1 |
| 268 to 271 °C | COc1cccc(CNC(=O)c2nc3ccc(O)cc3c(=O)[nH]2)c1 |
| 138 to 140 °C | CC(C)C(=O)O[C@@H](OC(=O)ON1C(=O)[C@H](OC(=O)c2ccccc2)[C@@H](OC(=O)c2ccccc2)C1=O)C(C)C |
| 109 to 110 °C | O=S(=O)(NCCCCOc1ccc(-n2cnnn2)cc1)c1ccc(Br)cc1 |
| 138 to 140 °C | O=C(Nc1cc(CN2CCCCC2)c(O)c(CN2CCCCC2)c1)c1ccccc1 |
| 117 to 118 °C | CC1CCN2C(=O)c3ccccc3NC(=O)C12 (stereo not drawn) |
| 261 to 263 °C | Cc1c(Sc2ccc(Cl)cc2)nn(-c2ccc(O)cc2)c(=O)c1C#N |
| 140 to 141 °C | CC(=O)Nc1ccc(Sc2ccc(F)cc2)cc1 |
| 151 to 153 °C | O=C(c1cc2cc([N+](=O)[O-])ccc2o1)C12CC3CC(CC(C3)C1)C2 |
| 162 °C | COc1cccc2c1C(NC1=Nc3ccc(Nc4nnc(C)o4)cc3CO1)CC2 (stereo not drawn) |
| 117 to 118 °C | COc1ccc(-c2nc(CCl)nc3sc(C)c(C)c23)cc1OC |
| > 300 °C | O=C(O)c1ccc(-c2cnc3c(c2)N(Cc2cc(F)ccc2F)CCN3)cc1 |
| 151 to 152 °C | CC1(C)CC(=O)CC(C)(C)N1CCCCCCN1C(C)(C)CC(=O)CC1(C)C |
| 129 to 130 °C | COc1cccc2c1CC(CC(=O)O)C1(C2)OCCO1 (stereo not drawn) |
| 160 to 162 °C | O=CN(O)C(CCO)CS(=O)(=O)c1ccc(-c2ccc(F)cc2)cc1 (stereo not drawn) |
| 115 to 118 °C | CS(=O)(=O)c1nc(OCc2ccccc2)cc(C(F)(F)F)n1 |
| 82 °C | O=S(c1ccccc1)c1ccc(Cc2csc(Br)n2)cc1 (stereo not drawn) |

| melting point | SMILES |
| --- | --- |
| 154 °C | CCc1cccc(C)c1CNc1cc(C(=O)N(C)C)cc2c1nc(COC)n2C |
| 219 to 222 °C | CSc1ccc(C(=O)Nc2ccccc2)cc1[N+](=O)[O-] |
| 170 to 172 °C | O=C(O)c1ccccc1NCCCN1c2ccccc2CCc2ccccc21 |
| 92.8 to 93.1 °C | CC(C)CSc1ccc(-c2nc(=O)c3ccccc3s2)cn1 |
| 239 to 241 °C | CCc1ccc(C(=O)Oc2ccc(C(=O)O)cc2)cc1C12CC3CC(CC(C3)C1)C2 |
| 221 to 222 °C | O=C(O)c1c(-c2cc(Cl)cc(Cl)c2)c2ccccc2n1Cc1cc2c(cc1Cl)OCO2 |
| 66 to 67 °C | CC(C)S(=O)(=O)N1CCC2(CC1)OCCO2 |
| 120 to 122 °C | CCOC(=O)C(N)c1c[nH]c2c(CC)cccc12 (stereo not drawn) |
| 125 to 127 °C | Cc1ccc([N+](=O)[O-])c2c1CCN2 |
| 196 to 197 °C | Clc1ccccc1-c1nc(-c2ccccc2)c(-c2ccccc2)[nH]1 |
| 132 to 134 °C | CCCCc1nn(-c2ccccc2C(F)(F)F)c(=O)n1Cc1ccc(-c2ccccc2S(=O)(=O)NS(=O)(=O)C(F)(F)F)cc1 |
| 206 to 208 °C | CCOC(=O)C1=C(COc2cccnc2)NC(COc2cccnc2)=C(C(=O)OCC)C1c1cccc([N+](=O)[O-])c1 |
| 226 to 228 °C | CCOc1nc(C(=O)O)ccc1CN |
| 149 to 150 °C | CCOC(=O)c1cnc2c(cnn2-c2ccccc2)c1O |
| 204 to 206 °C | CC(C)N1CC(c2nnc(Cc3ccc(F)cc3)o2)=C(O)C1=O |
| 196 to 198 °C | CN1C(=O)C2(COc3cc4c(cc32)OCCO4)c2c(NC(=O)C3CCCC3)cccc21 (stereo not drawn) |
| 172 to 175 °C | Oc1cccc(-c2cc3n(n2)-c2ccccc2CC3)c1 |
| 90 to 92 °C | CN(C)CCCOc1ccc(-c2nn(CC(=O)OCc3ccccc3)c3ncccc23)cc1 |
| 159 to 160 °C | CNC(=O)N(O)C(C)c1cc2cc(Cl)ccc2[nH]1 (stereo not drawn) |
| 97 to 100 °C | O=S1Cc2ccccc2-c2ccccc21 (stereo not drawn) |
| 104 to 106 °C | CN1CCN(c2nn(C(=O)c3ccccc3)c3ccccc23)CC1 |
| 117 to 120 °C | CCC(CC)Nc1c([N+](=O)[O-])cc(C)c(COC(=O)NC)c1[N+](=O)[O-] |
| > 250 °C | COc1ccc(Nc2nc(-c3cccc(C(=O)Nc4ccc(C(=O)O)cc4)c3)cn3ccnc23)cc1OC |
| 120 to 122 °C | CCCCN(Cc1ccc(-c2ccccc2-c2nnnn2C(c2ccccc2)(c2ccccc2)c2ccccc2)cc1)c1nc(C)ccc1C(=O)OCC |

| melting point | SMILES |
| --- | --- |
| > 250 °C | Cn1c(=O)c(C(=O)O)c(-c2ccccc2Cl)c2ccncc21 |
| 200 to 202 °C | COC(=O)Cn1c(=O)n(C)c(=O)n(-c2cc(Oc3c(Cl)ccc(C)c3Cl)ccc2[N+](=O)[O-])c1=O |
| 295 °C | NS(=O)(=O)c1ccc(C2CCN(c3ccncc3)CC2)cc1 |
| 116 to 119 °C | N#CC1=C(Nc2ccc(F)cc2F)CCC1 |
| 124 to 127 °C | COC(=O)c1ccc(OCCCNc2ccc3c(c2)OCO3)cc1 |
| 132 to 134 °C | CCOC=C1C(=O)N(c2cccc(Cl)c2)c2ccccc21 |
| 98 to 99 °C | CCOC(=O)c1ncc2[nH]c3c(Br)cc(Br)cc3c2c1COC |
| 232 to 235 °C | CC1(C(=O)O)CCCc2c(-c3ccc(Cl)cc3)noc2C1 (stereo not drawn) |
| 214 to 215 °C | CC(C)C(=O)Nc1c(N)cc(Br)cc1OCc1ccccc1 |
| 35 to 36 °C | C#CCN1CC[C@H](O[Si](C)(C)C(C)(C)C)C1=O |
| 238 to 240 °C | COc1cccc(-c2c(=O)[nH]c3cc(Cl)c(Cl)cc3[n+]2[O-])c1 |
| 155 to 156 °C | O=C1CC=C2CCC(=O)N12 |
| 127 to 128 °C | N#CC(C#N)=C1N(CCN2CCCCC2)c2ccccc2N1CCN1CCCCC1 |
| 83 to 85 °C | O=S(=O)(CCl)Nc1ccc(F)cc1Cl |
| 156 to 157 °C | COC(=O)/C=C1\CCCCC1n1nc(-c2c(-c3ccccc3)nn3ccccc23)ccc1=O (stereo not drawn) |
| 130 to 132 °C | O=S(=O)(C1CC1)C(F)(F)C(O)(Cn1cncn1)c1ccc(F)cc1F (stereo not drawn) |
| 227 to 229 °C | CC(=O)NCc1cccc(Nc2nccc(-c3sc(-c4ccc(C)nc4)nc3C)n2)c1 |
| 239 to 240 °C | O=C1SCC(O)=C1Cc1ccc(Cl)c(Cl)c1 |
| 139 to 142 °C | CN=C(NOC)c1nn(-c2c(Cl)cc(C(F)(F)F)cc2Cl)c(N)c1S(C)=O (stereo not drawn) |
| 83 to 85 °C | Clc1cc(-c2ccccc2)nc2sccc12 |
| 238 to 241 °C | CCOc1ccc2[nH]c3c([N+](=O)[O-])cc([N+](=O)[O-])c(Cl)c3c(=O)c2c1 |
| 232 to 234 °C | O=C1Nc2cccc(F)c2C(=O)N2CC[C@@H]12 |
| 160 to 162 °C | COc1ccc(O)c(C2Sc3ccccc3N(C)C2=O)c1 (single isomer, unassigned; (-)) |
| 110 to 112 °C | CCOC(=O)O[C@H](c1ccc(S(C)(=O)=O)cc1)[C@@H](CF)NC(=O)C(Cl)Cl |

| SMILES | melting point |
| --- | --- |
| Fc1cccc2sc(C3=CCNCC3)cc12 | 83 to 86 °C |
| COc1ccc2[nH]cc(C=C[N+](=O)[O-])c2c1 | 151 to 152 °C |
